Test results published in patent publication US20240174690A1, “ANNULATED 2-AMINO-3-CYANO THIOPHENES AND DERIVATIVES FOR THE TREATMENT OF CANCER” (BOEHRINGER INGELHEIM INTERNATIONAL GMBH, priority 2021, published 2024).

Legend:
AsPC-1 cells = assay: AsPC-1 CTG proliferation assay (120 h) (pancreatic cancer, G12D); assay type: cell-based; details: Homo sapiens, ASPC1
How it was run: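 AsPC-1 cells (KRAS G12D), 2000/well in RPMI with 10% FCS, seeded overnight, then treated with compound for 120 h at 37 °C. Viability by CellTiter-Glo luminescence as percent of DMSO control. IC50 from a four-parameter non-linear fit.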

[1] = system: KRAS G12V-dependent Ba/F3 cells; assay: Ba/F3 proliferation assay, KRAS G12V; assay type: cell-based; details: Mus musculus, BaF3, 72 h, AlamarBlue;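 note: proliferation IC50 in KRAS G12V-dependent Ba/F3 cells read by AlamarBlue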
How it was run: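 Ba/F3 cells retrovirally transduced with KRAS G12 mutants, puromycin-selected and grown without IL-3, so proliferation depends on the mutant KRAS. Compounds tested in technical duplicates; viability read by AlamarBlue fluorescence, with curve fitting for potency.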

SK-CO-1 cells = assay: SK-CO-1 CTG proliferation assay (120 h) (CRC, G12V); assay type: cell-based; details: Homo sapiens; SK-CO-1 cells (CRC, G12V), CTG 120 h
How it was run: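 SK-CO-1 colorectal cells (KRAS G12V), 500 per well in EMEM + 10% FCS, dosed with compound the day after seeding and grown 120 h at 37 °C. Viability by CellTiter-Glo luminescence as percent of DMSO control; IC50 from four-parameter non-linear regression.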

[2] = Plasma protein binding assay (PPB), equilibrium dialysis, 10% FCS in PBS; assay type: in vitro ADME; details: bovine, read-out: PPB 10% FCS (% fu)
How it was run: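 Equilibrium dialysis (5-10 kg/mol cut-off membrane) of 1-10 μmol/L test compound in 10% FCS/PBS against PBS with or without dextran, 3-5 h at 37° C. Compound in each chamber quantified by LC-MS after protein precipitation; fu calculated from Cserum and Cbuffer.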

CYP3A4 = CYP3A4 (Homo sapiens (Human), UniProt P08684); assay: Mechanism based inhibition of CYP3A4 assay (MBI 3A4); assay type: in vitro ADME; details: hydroxy-midazolam formation after 30 min vs 0 min preincubation, 25 uM, human liver microsomes
How it was run: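 Human CYP3A4 activity after 30 min vs 0 min preincubation with test compound; incubate then diluted 1:10 and midazolam added for a 15 min main incubation. Quenched with acetonitrile; hydroxy-midazolam quantified by LC/MS-MS and expressed as % of the 0 min preincubation formation.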

CYP3A4, sequence (P08684 whole entry): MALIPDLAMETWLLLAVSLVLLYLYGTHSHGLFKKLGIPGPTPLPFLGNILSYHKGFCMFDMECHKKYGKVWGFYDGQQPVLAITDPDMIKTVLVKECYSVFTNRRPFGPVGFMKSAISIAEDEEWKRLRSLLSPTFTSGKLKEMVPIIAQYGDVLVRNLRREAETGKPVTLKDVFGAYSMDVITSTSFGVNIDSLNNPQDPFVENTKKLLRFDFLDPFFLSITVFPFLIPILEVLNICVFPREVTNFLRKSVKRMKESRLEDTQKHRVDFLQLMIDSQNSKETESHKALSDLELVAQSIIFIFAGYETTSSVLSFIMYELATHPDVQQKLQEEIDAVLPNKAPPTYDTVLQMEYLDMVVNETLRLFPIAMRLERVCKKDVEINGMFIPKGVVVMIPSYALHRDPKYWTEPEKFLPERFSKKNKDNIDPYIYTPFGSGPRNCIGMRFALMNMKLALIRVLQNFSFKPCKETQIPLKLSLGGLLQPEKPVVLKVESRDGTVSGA

| Compound | IC50 (AsPC-1 cells) | IC50 [1] | IC50 (SK-CO-1 cells) | fraction unbound [2] | MBI 3A4 (CYP3A4) |
| --- | --- | --- | --- | --- | --- |
| COCc1cn(-c2cc(O[C@@H](C)[C@@H]3CCCN3C)nc(-c3noc4c3CCC[C@@]43CCCc4sc(N)c(C#N)c43)n2)nn1 [II-121] | 3070 nM | 11 nM | 57 nM | 0.4 | 56% |
| CNC(=O)c1cn(-c2cc(O[C@@H](C)[C@@H]3CCCN3C)nc(-c3noc4c3CCC[C@@]43CCCc4sc(N)c(C#N)c43)n2)nn1 [II-122] | 3350 nM | 10 nM | 52 nM | 0.44 | 68% |
| C[C@H](Oc1cc(-n2cc(-c3cccnc3)nn2)nc(-c2noc3c2CCC[C@@]32CCCc3sc(N)c(C#N)c32)n1)[C@@H]1CCCN1C [II-123] | 1540 nM | 24 nM | 96 nM | 0.11 | 64% |
